Source: patent publication US20180280326A1, “MEDICAMENT FOR PREVENTING OR INHIBITING ACUTE KIDNEY INJURY” (National Cerebral and Cardiovascular Center, priority 2015, published 2018)

How the values were obtained:
[1] = system: AT2 receptor deficient mice, CDDP induced acute kidney injury; assay: CDDP induced acute kidney injury-inhibiting effects on AT2 receptor deficient mice; format: in vivo; conditions: male AT2 receptor deficient mice; CDDP 15 mg/kg i.p.; oral 30 mg/kg per day from 3 days before; 72 hours after CDDP
Protocol: To 8- to 12-week-old male AT2 receptor deficient mice (n=3 or 5 to 7), 15 mg/kg of cisplatin (CDDP, disease group) or 30 mL/kg of phosphate buffered saline (PBS, normal group) was intraperitoneally administered.
A 0.2 mg/mL aqueous solution of Compound C in 0.5% carboxymethylcellulose (CMC) was prepared and orally administered so that Compound C was at a dose of 30 mg/kg per day from 3 days before the start of the experiment, and the mice were subjected to the experiment. To the control group, the same dose of 0.5% CMC aqueous solution was administered.
At 72 hours after CDDP administration, incision in the abdomen was performed under sevoflurane anesthesia, and the whole blood was collected from the abdominal great vein using a syringe. The blood was centrifuged, and the supernatant (serum) was collected. The serum was stored at −20 to −80° C. Immediately before dissection, spot urine was collected from each mouse.
Using the measurement kits, urinary albumin (Alb) and urinary creatinine (Cr) were measured for the calculation of the urinary Alb/Cr ratio, and also blood urea nitrogen (BUN) was measured. The results are shown in FIG. 3 (urinary Alb/Cr ratio) and FIG. 4 (BUN).

human renal cells = conditions: LPS as an endotoxin acting on human renal cells; Non Patent Literature 6; cited from earlier work

SMILES | inhibition of acute kidney injury caused by CDDP (urinary Alb/Cr ratio, FIG. 3; BUN, FIG. 4) [1] | level of IL-6 (human renal cells) | level of TNF-α (human renal cells)
CCN(CC)C(=O)[C@H](Cc1ccc(NC(=O)c2ccccc2)cc1)C(=O)NS(=O)(=O)c1ccc2ccccc2c1 [Compound C, (2S)-2-[4-(benzoylamino)benzyl]-N,N-diethyl-N′-(2-naphthylsulfonyl)malonamide] | not effective | – | –
CCCCOC(=O)NS(=O)(=O)c1sc(CC(C)C)cc1-c1ccc(Cn2ccnc2)cc1 [Example C21] | – | lowered | lowered
